Data published in patent publication US6613304B2, “Radiometal complexes of 2-pyrrolylthiones and their use as radiopharmaceuticals for imaging and therapy” (University of British Columbia, priority 2000, dated 2003).
Entries after “also recorded” stand apart in the source; their conditions may differ. Each block holds one compound with its values, some of them ahead of it.

What was measured:
[1] = Stability towards oxidation; type: physicochemical; settings: for stability towards oxidation: in solid state and in solution
[2] = cited from earlier work; for clearance relative to OIH: % of that of OIH
[3] = cited from earlier work
[4] = healthy subjects; cited from earlier work
[5] = Renal imaging: scintigraphic biodistribution of Tc-99m complexes in rats; type: in vivo, male Sprague and Dawley rats; settings: for scintigraphic image of the kidneys: one hour post injection, FIG. 5; for accumulation in the cortex: 1.5 min post injection, very fast linear accumulation
Description: A group of 3 male Sprague and Dawley rats were anaesthetised by intra-muscluar administration of a mixture of Ketamine Xylazine (1 ml/Kg). A 26 guage Butterfly was introduced into the lateral tail vein and filled with heparinised physiological saline. The animals were injected with the indicated radiopharmaceutical, in the minutes following the beginning of the acquisition.
Dose activities were measured in an Accucal 2001 dose calibrator Nuclear Pharmacy Inc. (Albuquerque, N. Mex., U.S.A). Scvintigraphic mages were recorded with a Starcam 4000i XRT Gamma camera General Electric (Saint Albans, UK) equipped with a parallel, medium energy, high resolution collimator. Image analysis was performed on a Genie PNR model nuclear medicine dedicated computer General Electric (Saint Albans, UK).
The camera was set to record a series of 32 images at 1 min intervals each, the animals were injected successively starting from animal A after the camera was started. All injections were finished within the first one and a half minute. Following each injection the catheter was flushed with 0.5 ml of physiological saline. Following this first acquisition a second dynamic acquisition was recorded at a rate of one image every 10 minutes. The animals woke up 90 min after injection at which time the study was terminated.
For analysis, the areas of interest were traced around the organs of interest (right and left kidneys for the first dynamic study; and heart, left kidney and bladder at image 60 min. post-injection on the second study) and the whole body of the rats. The result were expressed as counts per seconds or as percent of the whole body activity at a given time, and are presented in FIGS. 5-9.

- stability at room temperature ([1]; atmospheric oxygen): unstable at room temperature
Compound: COc1ccc(C(=S)c2ccc[nH]2)cc1OC [3,4-dimethoxyphenyl-2-pyrrolylthione, 3,4-Dimethoxyphenyl-2-pyrrolylthione]

Compound: Nc1ccc(C(=O)NCC(=O)O)cc1 [PAH, p-aminohippurate]
- extracted from the renal arterial plasma in a single pass through the renal parenchyma ([2]; in vivo): ~90%

Compound: O=C(O)CNC(=O)c1ccc(NC(=O)CN(CC(=O)O)CC(=O)O)cc1 [PAHIDA, p-[(biscarboxymethylaminomethyl)carbamino]hippuric acid]
- clearance relative to OIH [2]: less than 50%

Compound: O=C([O-])CN=C([O-])CN=C([O-])CN=C([O-])C[S-].[O-2].[Tc+4] [Tc-99m-MAG3, ^99mTc-mercaptoacetyltriglycine]
- plasma protein binding [3]: very high
- clearance relative to OIH [2]: 50-60%
- injected dose found in the kidneys ([2]; a few minutes post injection): 1-2%

- stability towards oxidation [1]: stable towards oxidation
Compound: Bis(2,2′-dipyrrolylthionato) ^99g Tc]oxotechnetium [compound 6]

- stability towards oxidation [1]: stable towards oxidation
Compound: Bis(3,4-dimethoxyphenyl-2-pyrrolylthionato) [99g Tc]oxotechnetium [compound 8]

- stability towards oxidation [1]: stable towards oxidation
Compound: Bis(p-methoxyphenyl-2-pyrrolylthionato) [^99g Tc]oxotechnetium [compound 7]

- activity in the calyx area ([5]; 1 hour post-injection): significant activity in the calyx area
- blood clearance (heart area used as a measure of blood activity) ([5]; 1 hour post-injection): more rapidly cleared
- overall kidney uptake ([5]; 1 hour post-injection, left kidney only): highest activity
Compound: Tc-99m-dimercaptosuccinic acid [DMSA, reference compound]
- plasma protein binding [3]: almost completely bound to the proteins
- steady level of renal uptake, of the activity administered [4]: ~30%
- time after injection until which renal activity increases [4]: 6 to 8 h
- scintigraphic image of the kidneys [5]: kidneys are well visualised

- accumulation in the cortex [5]: 20%
- excretion rate as evaluated by measuring the activity found in the bladder ([5]; 1 hour post-injection): best excretion rate
- detected radioactivity in the kidneys reaching a plateau ([5]; as compared to DMSA, FIGS. 6-8): reach a plateau more rapidly
- accumulation in the cortex at plateau ([5]; plateau at about 35 min to 1 hour post injection): 22%
Compound: ^99mTcO-disulfo-di-2-pyrrolylthionate [compound 9]
- scintigraphic image of the kidneys ([5]; listed as TcSL-11): better resolved the kidneys; also recorded: kidneys are well visualised

- accumulation in the cortex [5]: 20%
- excretion rate as evaluated by measuring the activity found in the bladder ([5]; 1 hour post-injection): best excretion rate
Compound: ^99mTcO-tetrasulfo-di-2-pyrrolylthionate [compound 10]
